Assay results as given in EP1643252B1 (priority 2004, dated 2009).

Assays:
cellular prion protein = settings: from individual with no prion disease
PrP^Sc = settings: brain homogenate of prion disease infected animal and human; biotinylated peptide on streptavidin magnetic beads

## AQKKDGKKRKRSRKESYSIYV [peptide-7]
Cellular prion protein
  capture of cellular prion protein: do not capture cellular prion protein
PrP^Sc
  ability to capture PrP^Sc from brain homogenate: capture PrP^Sc

## NWCKRGRKNCKTH [peptide-2]
Cellular prion protein
  capture of cellular prion protein: do not capture cellular prion protein
PrP^Sc
  ability to capture PrP^Sc from brain homogenate: capture PrP^Sc

## NYKKPKLG [peptide-3]
Cellular prion protein
  capture of cellular prion protein: do not capture cellular prion protein
PrP^Sc
  ability to capture PrP^Sc from brain homogenate: capture PrP^Sc

## WQPPRARI [peptide-1]
Cellular prion protein
  capture of cellular prion protein: do not capture cellular prion protein
PrP^Sc
  ability to capture PrP^Sc from brain homogenate: capture PrP^Sc

## YRGRYGYKGKYGYRG [peptide-6]
Cellular prion protein
  capture of cellular prion protein: do not capture cellular prion protein
PrP^Sc
  ability to capture PrP^Sc from brain homogenate: capture PrP^Sc

## YRGYRGYRGYRG [peptide-5]
Cellular prion protein
  capture of cellular prion protein: do not capture cellular prion protein
PrP^Sc
  ability to capture PrP^Sc from brain homogenate: capture PrP^Sc
